Patent publication EP0942911B1, “BENZOPYRANOPYRROLE AND BENZOPYRANOPYRIDINE ALPHA-1 ADRENERGIC COMPOUNDS” (Abbott Laboratories, priority 1996, dated 1998)
Where a name gives a salt, the structure may show the parent alone. Read-outs that look alike come from different tables or passages of the source.

How the values were obtained:
Assay in all cases: biochemical
[1] = target: T1, α-1b adrenoreceptor (Mesocricetus auratus, UniProt P18841); assay type: binding, hamster; details: read-out: Radioligand Binding (Ki, nM) 1b (Hamster)
T1 sequence (P18841 1-515): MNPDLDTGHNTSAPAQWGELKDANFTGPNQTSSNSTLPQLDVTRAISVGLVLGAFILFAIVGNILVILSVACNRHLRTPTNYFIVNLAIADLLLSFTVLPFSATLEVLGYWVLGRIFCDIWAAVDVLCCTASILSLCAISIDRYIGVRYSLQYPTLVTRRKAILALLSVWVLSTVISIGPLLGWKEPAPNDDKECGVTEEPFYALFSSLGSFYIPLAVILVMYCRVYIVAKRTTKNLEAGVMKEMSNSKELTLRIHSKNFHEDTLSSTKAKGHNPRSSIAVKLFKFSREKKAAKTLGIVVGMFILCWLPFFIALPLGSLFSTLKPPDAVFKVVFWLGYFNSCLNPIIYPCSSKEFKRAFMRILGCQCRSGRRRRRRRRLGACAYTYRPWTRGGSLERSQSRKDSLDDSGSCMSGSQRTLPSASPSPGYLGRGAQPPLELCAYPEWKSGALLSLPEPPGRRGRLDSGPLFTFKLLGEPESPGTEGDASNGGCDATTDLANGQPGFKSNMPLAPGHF
Text: (§1) The cDNA clones encoding the α-1 adrenoreceptors (α-1a, α-1b, and α-1d) were obtained from TULCO (Triangle Universities Licensing Consortium, Research Triangle Park, NC) and inserted into the eukaryotic expression vector SnaB30. In this vector, expression of the adrenoreceptor gene is under the transcriptional control of an SV40 early promoter. Positive drug selection is provided by a neomycin-resistance gene. Mouse fibroblast cells (LTK) were transfected with the α1 expression plasmids and grown in Dulbecco's modified Eagle's medium (DMEM) containing 10% fetal calf serum and 30 µM G418. Stable G418-resistant parental lines were generated, with successful expression of adrenoreceptor protein monitored using radioligand binding techniques. Stable single cell clones derived from the parental lines were screened in adrenoreceptor binding assays to identify clones having high adrenoreceptor density. Roller bottle cultures of the cloned lines were used to provide cell membranes for subsequent adrenoreceptor binding characterization studies. A cell line containing the SnaB30 vector expressing the human erythropoietin gene served as a negative control.
(§2) For adrenoreceptor binding assays, large scale membrane preparations were utilized in which 6 million cells were seeded into small (450 cm^2) Corning tissue culture roller bottles. 200 mL of DMEM containing 10% fetal calf serum and 300 µM G418 were added to each roller bottle. A 95% air / 5% CO2 gas mixture (sterile) was injected into each roller bottle prior to sealing. The bottles were then incubated at 37 °C on a roller rack for 5 days. Cells were re-fed with fresh medium after 3 days in culture.
(§3) On the fifth day of culture, growth medium was removed from cells grown in roller bottles, and the cells were washed twice with PBS (Sigma, 120 mM NaCl, 2.7 mM KCl, 10 mM Na2HPO4-NaH2PO4, pH = 7.4). Cells were detached from the roller bottles by incubating for 15 minutes at 37 °C in a Tris-EDTA solution (10 mM Tris, 100 mM NaCl, 1 mM EDTA, pH = 7.4). The cell suspension from each roller bottle was decanted into tared centrifuge tubes and kept on ice. An aliquot of each cell suspension was generally taken for cell counting. Cells were centrifuged at 3000 X G for 5 min at 2-4 °C, washed with PBS and recentrifuged. The supernatant was decanted and the pellet weighed to determine the wet weight of cells. Cells were washed a final time in 40 vol 5 mM Tris-HCl, 5 mM EDTA, pH = 7.7, and centrifuged at 40,000 X G for 10 minutes. Cells were homogenized in 10 mL of 50 mM Tris-HCl, 5 mM EDTA (pH = 7.4) and diluted to 40 mL/tube. Homogenates were centrifuged at 40,000 X G for 10 minutes. The supernatant was decanted and the pellets rehomogenized in 50 mM Tris-HCl (pH = 7.4) and centrifuged as before. The supernatant was decanted and the homogenate resuspended in 6.25 volumes (per gram wet weight) of 50 mM Tris-HCl and aliquots of the pooled homogenates frozen in liquid N2 and stored at -70 °C until the time of assay. Rat submaxillary glands were used for α-1A adrenoreceptors and were prepared essentially as described (Michel, A. D., Loury, D. N. and Whiting, R. L., Brit. J. Pharmacol. 98: 83-889 (1989)).
(§4) Receptor binding assays for α-1 adrenoreceptors were performed essentially as described by Greengrass and Bremner (Eur. J. Pharmacol. 55: 323-326 (1979)). […] Radioactivity was determined by standard liquid scintillation techniques. Data were analyzed as previously described (Hancock, A. A., Kyncl, J. J., Martin, Y. C. and DeBernardis, J. F., J. Receptor Res. 8: 23-46 (1988)).

[2] = target: T2, α-1A adrenoreceptor (rat submaxillary gland) (Rattus norvegicus, UniProt P43140); assay type: binding; details: read-out: Radioligand Binding (Ki, nM) 1A (Rat)
T2 sequence (P43140 1-466): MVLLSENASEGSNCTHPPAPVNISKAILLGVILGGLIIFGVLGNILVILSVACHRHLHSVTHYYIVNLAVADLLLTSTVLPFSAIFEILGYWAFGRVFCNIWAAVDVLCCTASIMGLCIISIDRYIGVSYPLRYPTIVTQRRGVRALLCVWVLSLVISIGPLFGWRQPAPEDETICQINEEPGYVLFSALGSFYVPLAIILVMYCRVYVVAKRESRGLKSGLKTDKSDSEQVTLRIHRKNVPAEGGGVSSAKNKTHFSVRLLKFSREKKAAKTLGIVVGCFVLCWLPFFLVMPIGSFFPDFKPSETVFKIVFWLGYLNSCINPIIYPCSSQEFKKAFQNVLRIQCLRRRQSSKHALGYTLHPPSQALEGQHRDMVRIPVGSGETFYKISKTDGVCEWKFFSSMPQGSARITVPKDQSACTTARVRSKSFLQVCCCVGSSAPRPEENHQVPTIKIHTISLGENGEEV
Protocol: Additionally, binding affinity against the pharrnacologically defined α-1A adrenoreceptor (rat submaxillary gland) was measured.
as §3, §4

[3] = target: T3, α-1d adrenoreceptor (Rattus norvegicus, UniProt P23944); assay type: binding; details: read-out: Radioligand Binding (Ki, nM) 1d (Rat)
T3 sequence (P23944 1-561): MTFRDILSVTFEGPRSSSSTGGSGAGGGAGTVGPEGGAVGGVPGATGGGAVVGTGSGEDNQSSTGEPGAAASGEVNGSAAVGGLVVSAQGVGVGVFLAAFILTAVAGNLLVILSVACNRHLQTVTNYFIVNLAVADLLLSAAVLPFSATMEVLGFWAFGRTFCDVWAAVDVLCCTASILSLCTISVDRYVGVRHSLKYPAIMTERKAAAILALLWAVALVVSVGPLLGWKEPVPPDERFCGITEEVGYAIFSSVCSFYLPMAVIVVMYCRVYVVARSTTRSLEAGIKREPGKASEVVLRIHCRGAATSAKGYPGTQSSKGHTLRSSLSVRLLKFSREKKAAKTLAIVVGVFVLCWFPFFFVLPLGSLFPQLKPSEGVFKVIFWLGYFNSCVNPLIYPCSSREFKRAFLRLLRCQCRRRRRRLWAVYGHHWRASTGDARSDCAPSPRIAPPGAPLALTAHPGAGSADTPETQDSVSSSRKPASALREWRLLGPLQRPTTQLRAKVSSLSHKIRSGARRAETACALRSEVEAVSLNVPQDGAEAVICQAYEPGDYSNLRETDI
Text: as §1, §2, §3, §4

[4] = target: T4, α-1a adrenoreceptor (Bos taurus, UniProt P18130); assay type: binding, bovine; details: read-out: Radioligand Binding (Ki, nM) 1a (Bovine)
T4 sequence (P18130 1-466): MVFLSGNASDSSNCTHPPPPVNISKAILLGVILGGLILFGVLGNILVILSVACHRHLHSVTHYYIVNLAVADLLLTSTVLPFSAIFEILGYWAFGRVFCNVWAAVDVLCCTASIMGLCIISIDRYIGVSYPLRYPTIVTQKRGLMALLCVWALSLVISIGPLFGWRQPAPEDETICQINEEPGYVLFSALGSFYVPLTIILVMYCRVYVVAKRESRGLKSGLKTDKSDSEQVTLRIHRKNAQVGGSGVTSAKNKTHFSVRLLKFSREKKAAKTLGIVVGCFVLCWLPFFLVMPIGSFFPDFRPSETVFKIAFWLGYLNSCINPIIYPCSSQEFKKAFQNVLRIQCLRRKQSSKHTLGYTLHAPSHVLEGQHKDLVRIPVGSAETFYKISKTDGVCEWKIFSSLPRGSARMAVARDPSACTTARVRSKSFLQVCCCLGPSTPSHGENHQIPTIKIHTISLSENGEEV
Text: as §1, §2, §3, §4

[5] = [3H]-prazosin radioligand, cloned receptor in LTK cell membranes
[6] = [3H]-prazosin radioligand, rat submaxillary gland membranes

Structure (SMILES) | Ki [1, 5] | Ki [2, 6] | Ki [3, 5] | Ki [4, 5] | Ki [1] | Ki [2] | Ki [3] | Ki [4]
COc1ccc2sc3c(=O)n(CCCCN4C[C@@H]5COc6cccc(OC)c6[C@H]5C4)c(=O)[nH]c3c2n1 [Example 7, 3-[4-((3aR,9bS)-trans-9-Methoxy-1,2,3,3a,4,9b-hexahydro-[1]-benzopyrano[3,4-c]pyrrol-2-yl)butyl]-8-methoxy-pyrido[2',3':4,5]thieno[3,2-d]pyrimidine-2,4(1H,3H)-dione hydrochloride] | 1.61 nM | 0.53 nM | 0.438 nM | 0.215 nM | – | – | – | –
COc1ccc2c(c1)[C@@H]1CN(CCCCn3c(=O)[nH]c4c(sc5ncccc54)c3=O)C[C@@H]1CO2 (racemic) [Example 75, 3-[4-((±)-cis-8-Methoxy-1,2,3,3a,4,9b-hexahydro-[1]-benzopyrano[3,4-c]pyrrol-2-yl)butyl]-pyrido[3',2':4,5]thieno[3,2-d]pyrimidine-2,4(1H,3H)-dione dihydrochloride] | – | – | – | – | 52.1 nM | 5.73 nM | 18.3 nM | 1.89 nM
COc1ccc2c(c1)[C@@H]1CN(CCCn3c(=O)[nH]c4c(sc5ncccc54)c3=O)C[C@@H]1CO2 (racemic) [Example 77, 3-[3-((±)-cis-8-Methoxy-1,2,3,3a,4,9b-hexahydro-[1]-benzopyrano[3,4-c]pyrrol-2-yl)propyl]-pyrido[3',2':4,5]thieno[3,2-d]pyrimidine-2,4(1H,3H)-dione hydrochloride] | – | – | – | – | – | 99.7 nM | 106 nM | 27 nM
COc1cccc2c1[C@H]1CN(CCCCn3c(=O)[nH]c4c(sc5ncc(-c6ccccc6)nc54)c3=O)C[C@@H]1CO2 [Example 9, 3-[4-((3aR,9bS)-trans-9-Methoxy-1,2,3,3a,4,9b-hexahydro-[1]-benzopyrano[3,4-c]pyrrol-2-yl)butyl]-8-phenyl-pyrazino[2',3':4,5]thieno[3,2-d]pyrimidine-2,4(1H,3H)-dione hydrochloride] | 17.8 nM | 2.27 nM | 1.55 nM | 0.325 nM | – | – | – | –
COc1ccc2c(c1)[C@@H]1CN(CCn3c(=O)[nH]c4c(sc5ncccc54)c3=O)C[C@@H]1CO2 (racemic) [Example 78, 3-[2-((±)-cis-8-Methoxy-1,2,3,3a,4,9b-hexahydro-[1]-benzopyrano[3,4-c]pyrrol-2-yl)ethyl]-pyrido[3',2':4,5]thieno[3,2-d]pyrimidine-2,4(1H,3H)-dione hydrochloride] | – | – | – | – | 1.88 nM | 0.297 nM | 0.478 nM | 0.122 nM
COc1cccc2c1[C@@H]1CN(CCCCn3c(=O)[nH]c4c(sc5ncc(Cl)nc54)c3=O)C[C@@H]1CO2 [Example 16, 3-[4-((3aR,9bR)-cis-9-Methoxy-1,2,3,3a,4,9b-hexahydro-[1]-benzopyrano[3,4-c]pyrrol-2-yl)butyl]-8-chloro-pyrazino[2',3':4,5]thieno[3,2-d]pyrimidine-2,4(1H,3H)-dione hydrochloride] | 8.64 nM | 0.373 nM | 0.729 nM | 0.073 nM | – | – | – | –
COc1cc2[nH]c(=O)n(CCCCN3C[C@@H]4COc5ccccc5[C@H]4C3)c(=O)c2cc1OC (racemic) [Example 80, 3-[4-((±)-trans-1,2,3,3a,4,9b-hexahydro-[1]-benzopyrano[3,4-c]pyrrol-2-yl)butyl]-6,7-dimethoxy-quinazoline-2,4(1H,3H)-dione hydrochloride] | – | – | – | – | 2.5 nM | 0.442 nM | 0.765 nM | 0.17 nM
COc1cccc2c1[C@@H]1CN(CCCCn3c(=O)[nH]c4c(sc5ccccc54)c3=O)C[C@H]1CO2 [Example 21, 3-[4-((3aS,9bR)-trans-9-Methoxy-1,2,3,3a,4,9b-hexahydro-[1]-benzopyrano[3,4-c]pyrrol-2-yl)butyl]-[1]benzthieno[3,2-d]pyrimidine-2,4(1H,3H)-dione hydrochloride] | 0.326 nM | 0.03 nM | 0.03 nM | 0.018 nM | – | – | – | –
